Measurements: PMC5218480 (PLoS ONE, 2017)

Test system: MV-4-11 cells
Assay: Gene expression microarray analysis (Affymetrix PrimeView) and GSEA
Assay type: cell-based, human
Design: RFU PODN (11730768_x_at) / Fold change /veh PODN (11730768_x_at) / RFU LINC00158 (11744669_a_at) / Fold change /veh LINC00158 (11744669_a_at) / RFU DUSP10 (11751237_a_at) / Fold change /veh DUSP10 (11751237_a_at) / RFU ID3 (11757404_x_at) / Fold change /veh ID3 (11757404_x_at) / RFU PLEKHG5 (11737974_s_at) / Fold change /veh PLEKHG5 (11737974_s_at) / RFU LRRC4B (11730491_at) / Fold change /veh LRRC4B (11730491_at) / RFU GIMAP4 (11747438_a_at) / Fold change /veh GIMAP4 (11747438_a_at) / RFU KRT8 (11758183_x_at) / Fold change /veh KRT8 (11758183_x_at) / RFU CNN1 (11734310_a_at) / Fold change /veh CNN1 (11734310_a_at) / RFU VPS37D (11726825_at) / Fold change /veh VPS37D (11726825_at) / RFU C10orf10 (11716522_x_at) / Fold change /veh C10orf10 (11716522_x_at) / RFU KIR2DL2 /// KIR2DL4 /// KIR2DL5A /// KIR2DL5B /// KIR2DS1 /// KIR2DS2 /// KIR2DS3 /// KIR2DS4 /// KIR3DL3 /// KIR3DL3 /// KIR3DS1 (11738374_at) / Fold change /veh KIR2DL2 /// KIR2DL4 /// KIR2DL5A /// KIR2DL5B /// KIR2DS1 /// KIR2DS2 /// KIR2DS3 /// KIR2DS4 /// KIR3DL3 /// KIR3DL3 /// KIR3DS1 (11738374_at) / RFU C1QL1 (11718748_at) / Fold change /veh C1QL1 (11718748_at) / RFU TMPRSS4 (11747572_a_at) / Fold change /veh TMPRSS4 (11747572_a_at) / RFU HAMP (11756126_x_at) / Fold change /veh HAMP (11756126_x_at) / RFU RNFT2 (11725882_a_at) / Fold change /veh RNFT2 (11725882_a_at) / RFU NR4A2 (11747474_a_at) / Fold change /veh NR4A2 (11747474_a_at) / RFU ABCC12 (11746883_a_at) / Fold change /veh ABCC12 (11746883_a_at) / RFU TMEM136 (11760407_x_at) / Fold change /veh TMEM136 (11760407_x_at) / RFU CLDN22 /// WWC2 (11732394_at) / Fold change /veh CLDN22 /// WWC2 (11732394_at) / RFU HLA-DPB1 (11760878_x_at) / Fold change /veh HLA-DPB1 (11760878_x_at) / RFU SPINT1 (11716480_a_at) / Fold change /veh SPINT1 (11716480_a_at) / RFU GAP43 (11754022_s_at) / Fold change /veh GAP43 (11754022_s_at) / RFU A4GNT (11735810_at) / Fold change /veh A4GNT (11735810_at) / RFU PRB3 (11715151_x_at) / Fold change /veh PRB3 (11715151_x_at) / RFU TUBB4B (11761932_at) / Fold change /veh TUBB4B (11761932_at) / RFU CAPN14 (11732068_a_at) / Fold change /veh CAPN14 (11732068_a_at) / RFU TMCC2 (11721928_a_at) / Fold change /veh TMCC2 (11721928_a_at) / RFU IRGQ (11745062_a_at) / Fold change /veh IRGQ (11745062_a_at) / RFU FAM174B (11720279_a_at) / Fold change /veh FAM174B (11720279_a_at) / RFU TMPRSS4 (11748680_a_at) / Fold change /veh TMPRSS4 (11748680_a_at) / RFU FAM212B (11763350_a_at) / Fold change /veh FAM212B (11763350_a_at) / RFU PLEKHG5 (11743358_a_at) / Fold change /veh PLEKHG5 (11743358_a_at) / RFU ZSCAN30 (11745921_a_at) / Fold change /veh ZSCAN30 (11745921_a_at) / RFU CMKLR1 (11741424_a_at) / Fold change /veh CMKLR1 (11741424_a_at) / RFU LOC101060620 /// MAPK8IP1 (11723275_at) / Fold change /veh LOC101060620 /// MAPK8IP1 (11723275_at) / RFU SPTSSB (11747773_x_at) / Fold change /veh SPTSSB (11747773_x_at) / RFU PRSS12 (11739890_at) / Fold change /veh PRSS12 (11739890_at) / RFU BIN1 (11741810_x_at) / Fold change /veh BIN1 (11741810_x_at) / RFU WNT11 (11732464_a_at) / Fold change /veh WNT11 (11732464_a_at) / RFU C10orf10 (11716521_a_at) / Fold change /veh C10orf10 (11716521_a_at) / RFU C5orf56 (11738089_at) / Fold change /veh C5orf56 (11738089_at) / RFU CYB561 (11721691_x_at) / Fold change /veh CYB561 (11721691_x_at) / RFU ANKRD19P (11752326_a_at) / Fold change /veh ANKRD19P (11752326_a_at) / RFU OR2T12 /// OR2T33 /// OR2T8 (11738714_s_at) / Fold change /veh OR2T12 /// OR2T33 /// OR2T8 (11738714_s_at) / RFU VCAN (11748164_a_at) / Fold change /veh VCAN (11748164_a_at) / RFU JSRP1 (11732532_at) / Fold change /veh JSRP1 (11732532_at) / RFU KRTAP10-11 (11738290_x_at) / Fold change /veh KRTAP10-11 (11738290_x_at) / RFU MYO3A (11730013_a_at) / Fold change /veh MYO3A (11730013_a_at) / RFU EBF3 (11725865_a_at) / Fold change /veh EBF3 (11725865_a_at) / RFU CAMK2N1 (11719241_x_at) / Fold change /veh CAMK2N1 (11719241_x_at) / RFU C5orf56 (11738088_a_at) / Fold change /veh C5orf56 (11738088_a_at) / RFU OLFML3 (11715873_a_at) / Fold change /veh OLFML3 (11715873_a_at) / RFU LOC100653217 /// NTM (11731650_a_at) / Fold change /veh LOC100653217 /// NTM (11731650_a_at) / RFU MAPK11 (11762145_a_at) / Fold change /veh MAPK11 (11762145_a_at) / RFU FIZ1 (11724087_x_at) / Fold change /veh FIZ1 (11724087_x_at) / RFU OASL (11726364_x_at) / Fold change /veh OASL (11726364_x_at) / RFU SOX15 (11748057_x_at) / Fold change /veh SOX15 (11748057_x_at) / RFU CD79A (11719716_a_at) / Fold change /veh CD79A (11719716_a_at) / RFU HIST1H1D (11736915_at) / Fold change /veh HIST1H1D (11736915_at) / RFU CASKIN2 (11723855_a_at) / Fold change /veh CASKIN2 (11723855_a_at) / RFU LOC730098 (11760151_x_at) / Fold change /veh LOC730098 (11760151_x_at) / RFU OR4N2 (11742367_at) / Fold change /veh OR4N2 (11742367_at) / RFU PRRT2 (11749266_a_at) / Fold change /veh PRRT2 (11749266_a_at) / RFU SNX32 (11753110_a_at) / Fold change /veh SNX32 (11753110_a_at) / RFU CDHR5 (11726645_a_at) / Fold change /veh CDHR5 (11726645_a_at) / RFU RCAN1 (11760418_a_at) / Fold change /veh RCAN1 (11760418_a_at) / RFU FAM167A (11723789_a_at) / Fold change /veh FAM167A (11723789_a_at) / RFU FAM26E (11764081_at) / Fold change /veh FAM26E (11764081_at) / RFU ISYNA1 (11749810_s_at) / Fold change /veh ISYNA1 (11749810_s_at) / RFU ACY1 (11761880_at) / Fold change /veh ACY1 (11761880_at) / RFU 11764098_at / Fold change /veh 11764098_at / RFU SAMD14 (11745864_x_at) / Fold change /veh SAMD14 (11745864_x_at) / RFU NPB (11741838_a_at) / Fold change /veh NPB (11741838_a_at) / RFU TMPRSS6 (11731388_a_at) / Fold change /veh TMPRSS6 (11731388_a_at) / RFU KRTAP10-2 (11738614_at) / Fold change /veh KRTAP10-2 (11738614_at) / RFU ARHGAP8 /// PRR5-ARHGAP8 (11727945_x_at) / Fold change /veh ARHGAP8 /// PRR5-ARHGAP8 (11727945_x_at) / RFU KRTAP5-7 /// NADSYN1 (11734609_at) / Fold change /veh KRTAP5-7 /// NADSYN1 (11734609_at) / RFU RASL12 (11751679_a_at) / Fold change /veh RASL12 (11751679_a_at) / RFU CDKN2B (11736163_a_at) / Fold change /veh CDKN2B (11736163_a_at) / RFU PRF1 (11729649_at) / Fold change /veh PRF1 (11729649_at) / RFU, ZNF638 /// ZNF638-IT1 / Fold change vs veh, ZNF638 /// ZNF638-IT1 / RFU, PANK3 / Fold change vs veh, PANK3 / RFU, SH3YL1 / Fold change vs veh, SH3YL1 / RFU, ZEB2 / Fold change vs veh, ZEB2 / RFU, NRIP1 / Fold change vs veh, NRIP1 / RFU, PTTG1IP / Fold change vs veh, PTTG1IP / RFU, CAPN2 / Fold change vs veh, CAPN2 / RFU, MED14 / Fold change vs veh, MED14 / RFU, SNORA58 / Fold change vs veh, SNORA58 / RFU, C1orf63 / Fold change vs veh, C1orf63 / RFU, LRRFIP1 / Fold change vs veh, LRRFIP1 / RFU, NDUFAF7 / Fold change vs veh, NDUFAF7 / RFU, SLC12A2 / Fold change vs veh, SLC12A2 / RFU, IBTK / Fold change vs veh, IBTK / RFU, ESF1 / Fold change vs veh, ESF1 / Fold change vs veh, TMEM50B / RFU, TAOK1 / Fold change vs veh, TAOK1 / RFU, ACBD3 / Fold change vs veh, ACBD3 / RFU, TMA16 / Fold change vs veh, TMA16 / RFU, RWDD3 / Fold change vs veh, RWDD3 / RFU, BCAT1 / Fold change vs veh, BCAT1 / RFU, EDEM3 / Fold change vs veh, EDEM3 / RFU, TMEM33 / Fold change vs veh, TMEM33 / RFU, WDR75 / Fold change vs veh, WDR75 / RFU, AHCTF1 / Fold change vs veh, AHCTF1 / RFU, TFRC / Fold change vs veh, TFRC / RFU, ZDHHC17 / Fold change vs veh, ZDHHC17 / RFU, NOM1 / Fold change vs veh, NOM1 / RFU, ARL8B / Fold change vs veh, ARL8B / RFU, ZBTB11 / Fold change vs veh, ZBTB11 / RFU, TAMM41 / Fold change vs veh, TAMM41 / RFU, KIAA1704 /// LOC100996395 / Fold change vs veh, KIAA1704 /// LOC100996395 / RFU, ING1 / Fold change vs veh, ING1 / RFU, TRMT61B / Fold change vs veh, TRMT61B / RFU, FUBP3 / Fold change vs veh, FUBP3 / RFU, TP53 / Fold change vs veh, TP53 / RFU, TNKS2 / Fold change vs veh, TNKS2 / RFU, ZFP14 / Fold change vs veh, ZFP14 / RFU, ACTR2 / Fold change vs veh, ACTR2 / RFU, PPP3R1 / Fold change vs veh, PPP3R1 / RFU, PIK3R1 / Fold change vs veh, PIK3R1 / RFU, HNRNPA1 / Fold change vs veh, HNRNPA1 / RFU, RNF170 / Fold change vs veh, RNF170 / RFU, ZNF28 / Fold change vs veh, ZNF28 / RFU, RNGTT / Fold change vs veh, RNGTT / RFU, OGT / Fold change vs veh, OGT / RFU, BRD1 / Fold change vs veh, BRD1 / RFU, MARS / Fold change vs veh, MARS / RFU, ZNF655 / Fold change vs veh, ZNF655 / RFU, FAHD1 / Fold change vs veh, FAHD1 / RFU, BDP1 / Fold change vs veh, BDP1 / RFU, LRRCC1 / Fold change vs veh, LRRCC1 / RFU, ARID1A / Fold change vs veh, ARID1A / RFU, ZNF146 / Fold change vs veh, ZNF146 / RFU, ZNF330 / Fold change vs veh, ZNF330 / RFU, GPN3 / Fold change vs veh, GPN3 / RFU, C9orf123 / Fold change vs veh, C9orf123 / RFU, N4BP2L2 / Fold change vs veh, N4BP2L2 / RFU, ARFIP1 / Fold change vs veh, ARFIP1 / RFU, FAM179B / Fold change vs veh, FAM179B / RFU, BCL10 / Fold change vs veh, BCL10 / RFU, UHRF1BP1L / Fold change vs veh, UHRF1BP1L / RFU, BET1 / Fold change vs veh, BET1 / RFU, CNOT2 / Fold change vs veh, CNOT2 / RFU, ZNF268 / Fold change vs veh, ZNF268 / Fold change vs veh, ZNF507 / RFU, DGCR2 / Fold change vs veh, DGCR2 / RFU, WDSUB1 / Fold change vs veh, WDSUB1 / Fold change vs veh, HSP90B1 /// MIR3652 / RFU, ADSS / Fold change vs veh, ADSS / RFU, GK / Fold change vs veh, GK / RFU, ZNF148 / Fold change vs veh, ZNF148 / RFU, TAF9 / Fold change vs veh, TAF9 / RFU, SLC1A5 / Fold change vs veh, SLC1A5 / RFU, SLMO2 / Fold change vs veh, SLMO2 / RFU, ABCC4 / Fold change vs veh, ABCC4 / RFU, LOC101060439 /// RAP1B / Fold change vs veh, LOC101060439 /// RAP1B / RFU, RFX7 / Fold change vs veh, RFX7 / RFU, GTPBP10 / Fold change vs veh, GTPBP10 / RFU, CNEP1R1 / Fold change vs veh, CNEP1R1 / RFU, BIVM-ERCC5 /// ERCC5 / Fold change vs veh, BIVM-ERCC5 /// ERCC5 / RFU, ILF3 / Fold change vs veh, ILF3 / RFU 11762660_at / Fold change /veh 11762660_at / RFU VCAN (11757783_s_at) / Fold change /veh VCAN (11757783_s_at) / RFU DDX43 (11728927_at) / Fold change /veh DDX43 (11728927_at) / RFU KRT8 (11758188_x_at) / Fold change /veh KRT8 (11758188_x_at) / RFU NKD1 (11759106_at) / Fold change /veh NKD1 (11759106_at) / RFU SRD5A1 (11742802_a_at) / Fold change /veh SRD5A1 (11742802_a_at) / RFU TPSAB1 /// TPSB2 (11721975_s_at) / Fold change /veh TPSAB1 /// TPSB2 (11721975_s_at) / RFU GSTM3 (11746129_a_at) / Fold change /veh GSTM3 (11746129_a_at) / RFU IL23R (11737362_x_at) / Fold change /veh IL23R (11737362_x_at) / RFU TMEM51 (11727254_a_at) / Fold change /veh TMEM51 (11727254_a_at) / RFU PIWIL2 (11732686_x_at) / Fold change /veh PIWIL2 (11732686_x_at) / RFU ORM1 (11744905_x_at) / Fold change /veh ORM1 (11744905_x_at) / RFU CCDC152 (11743942_at) / Fold change /veh CCDC152 (11743942_at) / RFU ECM1 (11717891_a_at) / Fold change /veh ECM1 (11717891_a_at) / RFU IL23R (11748794_a_at) / Fold change /veh IL23R (11748794_a_at) / RFU TNFAIP8L3 (11732012_x_at) / Fold change /veh TNFAIP8L3 (11732012_x_at) / RFU MBOAT4 (11741988_at) / Fold change /veh MBOAT4 (11741988_at) / RFU 11764193_at / Fold change /veh 11764193_at / RFU TMEM53 (11763286_at) / Fold change /veh TMEM53 (11763286_at) / RFU MAGEB2 (11727129_at) / Fold change /veh MAGEB2 (11727129_at) / RFU TMEM200A (11744735_a_at) / Fold change /veh TMEM200A (11744735_a_at) / RFU CCDC152 (11751479_a_at) / Fold change /veh CCDC152 (11751479_a_at) / RFU FAM211A (11726209_a_at) / Fold change /veh FAM211A (11726209_a_at) / RFU RGS16 (11746705_a_at) / Fold change /veh RGS16 (11746705_a_at) / RFU VCAN (11755009_s_at) / Fold change /veh VCAN (11755009_s_at) / RFU RHOB (11743442_s_at) / Fold change /veh RHOB (11743442_s_at) / RFU RGS16 (11720943_a_at) / Fold change /veh RGS16 (11720943_a_at) / RFU RGS16 (11720944_at) / Fold change /veh RGS16 (11720944_at) / RFU, VPS4B / Fold change vs veh, VPS4B / RFU, CREB1 / Fold change vs veh, CREB1 / RFU, DNAJC13 / Fold change vs veh, DNAJC13 / RFU, GNAQ / Fold change vs veh, GNAQ / RFU, CDK5R1 / Fold change vs veh, CDK5R1 / RFU, ZRANB3 / Fold change vs veh, ZRANB3 / RFU, CUL4A / Fold change vs veh, CUL4A / RFU, CCNY / Fold change vs veh, CCNY / RFU, UFL1 / Fold change vs veh, UFL1 / RFU, COG3 / Fold change vs veh, COG3 / RFU, DIAPH2 / Fold change vs veh, DIAPH2 / RFU, SKA2 / Fold change vs veh, SKA2 / RFU, AFF3 / Fold change vs veh, AFF3 / RFU, LMF1 / Fold change vs veh, LMF1 / RFU, IPO11 / Fold change vs veh, IPO11 / RFU, DFFB / Fold change vs veh, DFFB / RFU, FOXP1 / Fold change vs veh, FOXP1 / RFU, CARD8 / Fold change vs veh, CARD8 / RFU, STRN3 / Fold change vs veh, STRN3 / RFU, ADK / Fold change vs veh, ADK / RFU, RASSF2 / Fold change vs veh, RASSF2 / RFU, WIPF1 / Fold change vs veh, WIPF1 / RFU, LARP1B / Fold change vs veh, LARP1B / RFU, RASA1 / Fold change vs veh, RASA1 / RFU, RB1 / Fold change vs veh, RB1 / RFU, PPFIA1 / Fold change vs veh, PPFIA1 / RFU, MAT2A / Fold change vs veh, MAT2A / RFU, CCT5 / Fold change vs veh, CCT5 / RFU, WDR92 / Fold change vs veh, WDR92 / RFU, CUX1 / Fold change vs veh, CUX1 / RFU, TTC7A / Fold change vs veh, TTC7A / RFU, TMEM135 / Fold change vs veh, TMEM135 / RFU, DEPTOR / Fold change vs veh, DEPTOR / RFU, CPM / Fold change vs veh, CPM / RFU, DNAJB6 / Fold change vs veh, DNAJB6 / RFU, CACNA2D3 / Fold change vs veh, CACNA2D3 / RFU, DTX4 / Fold change vs veh, DTX4 / RFU, TFCP2 / Fold change vs veh, TFCP2 / RFU, GMCL1 /// GMCL1P1 / Fold change vs veh, GMCL1 /// GMCL1P1 / RFU, AEBP2 / Fold change vs veh, AEBP2 / RFU, SNHG1 /// SNORD22 /// SNORD25 /// SNORD26 /// SNORD27 /// SNORD28 /// SNORD29 /// SNORD31 / Fold change vs veh, SNHG1 /// SNORD22 /// SNORD25 /// SNORD26 /// SNORD27 /// SNORD28 /// SNORD29 /// SNORD31 / Fold change (Aza/veh), C12orf56 (ProbeSet 11735607_a_at) / Fold change (ACY-1035/veh), C12orf56 (ProbeSet 11735607_a_at) / Fold change (Aza/veh), FGFR1OP (ProbeSet 11751329_s_at) / Fold change (ACY-1035/veh), FGFR1OP (ProbeSet 11751329_s_at) / Fold change (Aza/veh), VPS36 (ProbeSet 11739960_a_at) / Fold change (ACY-1035/veh), VPS36 (ProbeSet 11739960_a_at) / RFU SYPL1 (11715823_x_at) / Fold change /veh SYPL1 (11715823_x_at) / RFU IGFBP7 (11715501_s_at) / Fold change /veh IGFBP7 (11715501_s_at) / RFU REEP3 (11722064_at) / Fold change /veh REEP3 (11722064_at) / RFU IGLL1 (11728026_x_at) / Fold change /veh IGLL1 (11728026_x_at): dose or concentration left out as unconfirmed
Conditions: ProbeSet 11723475_a_at; LIST B

Compound: Nc1ncn([C@@H]2O[C@H](CO)[C@@H](O)[C@H]2O)c(=O)n1 [azacitidine]
- RFU, TRMT61B: 139.59 RFU
